Results on two compounds are retold here after paper PMC4972829, “Olfactory Receptors Modulate Physiological Processes in Human Airway Smooth Muscle Cells” (Frontiers in Physiology, 2016).

In one assay the target is T1, OR1D2 (Homo sapiens, UniProt P34982).
T1 sequence (P34982 1-312): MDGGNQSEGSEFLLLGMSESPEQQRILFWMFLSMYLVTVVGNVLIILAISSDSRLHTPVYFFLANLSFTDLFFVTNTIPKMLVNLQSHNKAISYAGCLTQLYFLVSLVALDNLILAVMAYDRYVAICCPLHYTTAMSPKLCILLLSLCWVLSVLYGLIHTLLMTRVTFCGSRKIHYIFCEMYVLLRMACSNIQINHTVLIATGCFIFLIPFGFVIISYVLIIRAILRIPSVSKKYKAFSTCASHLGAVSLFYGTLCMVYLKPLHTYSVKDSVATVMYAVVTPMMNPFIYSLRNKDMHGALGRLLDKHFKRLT
Kind of assay: fura-2 calcium imaging in native human airway smooth muscle cells; blocked by OR1D2 antagonist undecanal; cAMP assay. The class given is cell-based.

The target of the next assay is T2, OR2AG1 (Homo sapiens, UniProt Q9H205).
T2 sequence (Q9H205 1-316): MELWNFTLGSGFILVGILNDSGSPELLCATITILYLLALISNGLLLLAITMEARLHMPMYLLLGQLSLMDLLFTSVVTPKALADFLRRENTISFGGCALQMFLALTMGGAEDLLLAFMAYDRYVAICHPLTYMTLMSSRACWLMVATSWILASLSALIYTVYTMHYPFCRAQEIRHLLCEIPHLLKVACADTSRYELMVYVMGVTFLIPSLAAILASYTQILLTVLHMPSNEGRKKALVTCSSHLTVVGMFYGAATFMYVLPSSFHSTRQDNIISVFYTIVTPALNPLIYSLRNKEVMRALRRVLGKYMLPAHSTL
Briefly: fura-2 calcium imaging in native human airway smooth muscle cells; cAMP assay (text prints EC50 […], figure legend […]). The class given is cell-based. (cAMP levels reflect the balance of adenylyl cyclase and phosphodiesterase activity.)

On to `CC(C)(C)c1ccc(CCC=O)cc1` [bourgeonal], for which the EC50 on OR1D2 came out at 0.504 µM.
Consider `CCCCCOC(=O)CCC` [amyl butyrate], for which the EC50 on OR2AG1 worked out at 253 µM.

A word on the EC50: it is the concentration that produces a half-maximal response.
